Experimental data: patent US20180169136A1, “USE OF PHARMACEUTICAL COMPOSITION IN PREPARATION OF DRUG FOR PROMOTING CHONDROCYTE GENERATION” (KAOHSIUNG MEDICAL UNIVERSITY, priority 2015, published 2018)
Several values for one entry are separate records, joined by “and”; a condition that tells them apart may be missing. Equal values may be shown once.

Legend:
[1] = test system: human adipose-derived stem cells (hADSCs); assay: sGAG formation (DMMB analysis) in hADSCs cultured in wells coated with or without hyaluronic acid; format: cell-based; settings: day 7, standardized with DNA
Procedure: Sulfated glycosaminoglycan (sGAG) is a major extracellular matrix of articular cartilage. In order to test whether simvastatin can promote the expression of sGAG in human adipose-derived stem cells (hADSCs) and its optimal concentration, the present invention first prepared hyaluronic acid (HA) coated wells by coating hyaluronic acid dissolved in 1 ml of phosphate buffer (PBS, 1% w/w) on a 24-well plate, standing at 37° C. for 48 hours, then washed with PBS two times. Human adipose-derived stem cells were seeded in wells containing 500 μl of basal medium at a density of 1×10^5 cells per well, wherein the basal medium contains Dulbecco's modified Eagle's medium (DMEM), and was additionally supplemented with 5% fetal bovine serum (FBS), 1% nonessential amino acids and 100 U/ml of penicillin/streptomycin (Gibco-BRL, Grand Island, N.Y.). During the culturing period, simvastatin at different concentrations (0.1 to 1 μM) was added to the well plate, and the medium was replaced with fresh one every two days. On day 7 after the cultivation started, cells were collected for dimethylmethylene blue (DMMB) analysis with Blyscan sulfated glycosaminoglycan reagent (Biocolor, Antrim, UK), and for standardization of sulfated glycosaminoglycan (sGAG) formation with DNA.

[2] = test system: Sox-9; assay: real-time PCR, chondrogenic gene Sox-9 in hADSCs in HA-coated or non-coated wells; format: cell-based, human; settings: 1 μM simvastatin, with or without 1% HA coating, 1 to 5 days
Procedure: (§1) Human adipose-derived stem cells (hADSCs) were cultured in wells coated with hyaluronic acid (HA) and without hyaluronic acid (non-HA), and treated with or without 1 μM of simvastatin (SIM) for 1 to 5 days. […]
(§2) Cells were harvested on designated days and analyzed for the expression of BMP-2 and chondrogenic genes using real-time PCR. […] Real-time PCR reactions were performed and monitored by using iQTM SYBR Green® supermix (Bio-Rad Laboratories Inc, Hercules, Calif.) and a quantitative real-time PCR detection system (Bio-Rad Laboratories Inc, Hercules, Calif.). […] The expression level of each of the target genes, as previously described, was calculated as 2-ΔΔCt. For each gene of interest, four readings were performed for each of the experimental samples, each experiment was repeated for at least three times. […]

[3] = test system: aggrecan; assay: real-time PCR, chondrogenic gene aggrecan in hADSCs in HA-coated or non-coated wells; format: cell-based, human; settings: 1 μM simvastatin, with or without 1% HA coating, 1 to 5 days
Procedure: as §1, §2

[4] = test system: Col II; assay: real-time PCR, chondrogenic gene Col II in hADSCs in HA-coated or non-coated wells; format: cell-based, human; settings: 1 μM simvastatin, with or without 1% HA coating, 1 to 5 days
Procedure: as §1, §2

[5] = test system: BMP-2; assay: real-time PCR, BMP-2 gene expression in hADSCs in HA-coated or non-coated wells; format: cell-based, human; settings: relative to Non-HA group day 1 = 1, simvastatin 1 μM, HA 1%
Procedure: Human adipose-derived stem cells (hADSCs) were cultured in wells coated with hyaluronic acid (HA) and without hyaluronic acid (non-HA), and treated with or without 1 μM of simvastatin (SIM) for 1 to 5 days. The present invention was therefore divided into four experimental groups: (1) No hyaluronic acid (Non-HA) group: human adipose-derived stem cells were cultured in wells not coated with hyaluronic acid and not treated with simvastatin (1 μM); (2) No hyaluronic acid plus simvastatin (Non-HA+Sim) group: human adipose-derived stem cells were cultured in wells not coated with hyaluronic acid but treated with simvastatin (1 μM); (3) Hyaluronic acid (HA) group: human adipose-derived stem cells were cultured in wells coated with hyaluronic acid but not treated with simvastatin (1 μM); and (4) Hyaluronic acid plus simvastatin (HA+Sim) group: human adipose-derived stem cells were cultured in wells coated with hyaluronic acid and treated with simvastatin (1 μM).
Cells were harvested on designated days and analyzed for the expression of BMP-2 and chondrogenic genes using real-time PCR. Total RNA of these cells was extracted by following the manufacturer's instructions and using TRIzol reagent (Gibco BRL, Rockville, Md.). In short, a reaction volume of 20 μl was taken which contained 0.5 to 1 μg of total RNA, and then RNA was reverse-transcribed into cDNA by using the SuperScript First-Strand Synthesis System (Invitrogen). Real-time PCR reactions were performed and monitored by using iQTM SYBR Green® supermix (Bio-Rad Laboratories Inc, Hercules, Calif.) and a quantitative real-time PCR detection system (Bio-Rad Laboratories Inc, Hercules, Calif.). […] The expression level of each of the target genes, as previously described, was calculated as 2-ΔΔCt. For each gene of interest, four readings were performed for each of the experimental samples, each experiment was repeated for at least three times. […]

[6] = test system: osteocalcin; assay: real-time PCR, osteocalcin gene expression in hADSCs in HA-coated or non-coated wells; format: cell-based, human; settings: day 1 to day 5; relative to Non-HA group day 1 = 1; simvastatin 1 μM
Procedure: as §1, §2

Structure (SMILES): CCC(C)(C)C(=O)O[C@H]1C[C@@H](C)C=C2C=C[C@H](C)[C@H](CC[C@@H]3C[C@@H](O)CC(=O)O3)[C@H]21 [simvastatin]
- expression level of sGAG ([1]; absence of hyaluronic acid (Non-HA), simvastatin 0.1 μM): 0.5 µg/µg
- expression level of sGAG ([1]; absence of hyaluronic acid (Non-HA), simvastatin 0.5 μM): 0.5 µg/µg
- expression level of sGAG ([1]; absence of hyaluronic acid (Non-HA), simvastatin 1 μM): 0.7 µg/µg
- expression level of sGAG ([1]; presence of 1% hyaluronic acid, simvastatin 0.1 μM): 1.3 µg/µg
- expression level of sGAG ([1]; presence of 1% hyaluronic acid, simvastatin 0.5 μM): 2.5 µg/µg
- expression level of sGAG ([1]; presence of 1% hyaluronic acid, simvastatin 1 μM): 2.8 µg/µg
- expression of chondrogenic gene Sox-9 [2]: failed to effectively enhance
- expression of chondrogenic gene aggrecan [3]: failed to effectively enhance
- expression of chondrogenic gene Col II [4]: failed to effectively enhance
- expression of BMP-2 gene ([5]; day 1): 1.2 fold
- expression of BMP-2 gene ([5]; day 3): 0.8 fold
- expression of BMP-2 gene ([5]; day 5, listed as Non-HA+Sim): 1.1 fold and 2.1 fold
- expression of osteocalcin gene [6]: significantly increased
